This is an account of results in patent publication US20200190081A1, “META SUBSTITUTED PHENYLPYRAZOLO- AND PHENYLPYRROLO- PYRIDAZINE DERIVATIVES HAVING MULTIMODAL ACTIVITY AGAINST PAIN” (ESTEVE PHARMACEUTICALS, S.A., priority 2016, published 2020).

Bounds are passed on as bounds.

For assay [1], the target named is Human norepinephrine transporter (NET) (Homo sapiens, UniProt P23975). Kind of assay: Binding assay to human norepinephrine transporter (NET), [3H]-Nisoxetin. Particulars: human NET enriched membranes, 5 nM [3H]-Nisoxetin. On the procedure:
Binding Assay to Human Norepinephrine Transporter (NET).
Human norepinephrine transporter (NET) enriched membranes (5 μg) were incubated with 5 nM of radiolabeled [3H]-Nisoxetin in assay buffer containing 50 mM Tris-HCl, 120 mM NaCl, 5 mM KCl, pH 7.4. NSB (non specific binding) was measured by adding 10 μM of desipramine. The binding of the test compound was measured at five different concentrations. After 60 min incubation at 4° C., binding reaction was terminated by filtering through Multiscreen GF/C (Millipore) presoaked in 0.5% polyethyleneimine in Vacuum Manifold Station, followed by 3 washes with ice-cold filtration buffer containing 50 mM Tris-HCl, 0.9% NaCl, pH 7.4. Filter plates were dried at 60° C. for 1 hour and 30 μl of scintillation cocktail were added to each well before radioactivity reading. Readings were performed in a Trilux 1450 Microbeta radioactive counter (Perkin Elmer).

The target in assay [2] is Human α2δ-1 Subunit of Cav2.2 Calcium Channel (Homo sapiens, UniProt P54289). The assay can be described thus: Human α2δ-1 subunit of Cav2.2 calcium channel assay, [3H]-Gabapentin binding. Particulars: human α2δ-1 enriched membranes, 15 nM [3H]-Gabapentin. On the procedure: Human α2δ-1 Subunit of Cav2.2 Calcium Channel Assay
Human α2δ-1 Subunit of Cav2.2 Calcium Channel, sequence (P54289 25-1103): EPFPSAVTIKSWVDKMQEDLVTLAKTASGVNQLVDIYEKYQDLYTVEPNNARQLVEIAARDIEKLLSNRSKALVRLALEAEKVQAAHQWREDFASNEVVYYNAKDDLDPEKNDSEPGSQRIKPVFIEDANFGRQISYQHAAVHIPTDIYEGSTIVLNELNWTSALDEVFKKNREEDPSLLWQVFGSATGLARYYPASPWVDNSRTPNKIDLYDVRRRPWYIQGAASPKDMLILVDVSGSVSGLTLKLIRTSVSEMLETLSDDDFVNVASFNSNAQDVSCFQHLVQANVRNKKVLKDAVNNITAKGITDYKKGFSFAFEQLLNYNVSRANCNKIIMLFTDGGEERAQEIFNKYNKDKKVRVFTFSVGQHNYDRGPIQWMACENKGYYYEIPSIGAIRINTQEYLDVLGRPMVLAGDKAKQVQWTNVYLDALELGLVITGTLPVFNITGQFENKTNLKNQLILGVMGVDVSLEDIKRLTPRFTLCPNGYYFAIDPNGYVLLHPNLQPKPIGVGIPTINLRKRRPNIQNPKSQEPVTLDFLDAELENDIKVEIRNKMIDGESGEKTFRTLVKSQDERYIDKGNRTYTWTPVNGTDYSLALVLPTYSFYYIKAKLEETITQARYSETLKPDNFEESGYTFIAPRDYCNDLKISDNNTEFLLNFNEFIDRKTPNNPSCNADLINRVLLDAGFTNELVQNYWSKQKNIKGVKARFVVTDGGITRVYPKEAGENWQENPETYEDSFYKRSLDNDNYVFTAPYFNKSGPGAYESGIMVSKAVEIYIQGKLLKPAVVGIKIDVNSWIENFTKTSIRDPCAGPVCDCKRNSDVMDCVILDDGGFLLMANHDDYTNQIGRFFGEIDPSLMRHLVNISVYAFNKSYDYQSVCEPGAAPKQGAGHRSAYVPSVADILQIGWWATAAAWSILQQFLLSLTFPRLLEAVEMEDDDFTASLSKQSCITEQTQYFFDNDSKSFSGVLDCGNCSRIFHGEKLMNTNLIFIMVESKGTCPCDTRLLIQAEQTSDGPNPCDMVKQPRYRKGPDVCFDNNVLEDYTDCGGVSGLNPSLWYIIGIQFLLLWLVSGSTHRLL
Human α2δ-1 enriched membranes (2.5 μg) were incubated with 15 nM of radiolabeled [3H]-Gabapentin in assay buffer containing Hepes-KOH 10 mM, pH 7.4. NSB (non specific binding) was measured by adding 10 μM pregabalin. The binding of the test compound was measured at five different concentrations. After 60 min incubation at 27° C., binding reaction was terminated by filtering through Multiscreen GF/C (Millipore) presoaked in 0.5% polyethyleneimine in Vacuum Manifold Station, followed by 3 washes with ice-cold filtration buffer containing 50 mM Tris-HCl, pH 7.4. Filter plates were dried at 60° C. for 1 hour and 30 μl of scintillation cocktail were added to each well before radioactivity reading. Readings were performed in a Trilux 1450 Microbeta radioactive counter (Perkin Elmer).

Human norepinephrine transporter (NET), sequence (P23975 whole entry): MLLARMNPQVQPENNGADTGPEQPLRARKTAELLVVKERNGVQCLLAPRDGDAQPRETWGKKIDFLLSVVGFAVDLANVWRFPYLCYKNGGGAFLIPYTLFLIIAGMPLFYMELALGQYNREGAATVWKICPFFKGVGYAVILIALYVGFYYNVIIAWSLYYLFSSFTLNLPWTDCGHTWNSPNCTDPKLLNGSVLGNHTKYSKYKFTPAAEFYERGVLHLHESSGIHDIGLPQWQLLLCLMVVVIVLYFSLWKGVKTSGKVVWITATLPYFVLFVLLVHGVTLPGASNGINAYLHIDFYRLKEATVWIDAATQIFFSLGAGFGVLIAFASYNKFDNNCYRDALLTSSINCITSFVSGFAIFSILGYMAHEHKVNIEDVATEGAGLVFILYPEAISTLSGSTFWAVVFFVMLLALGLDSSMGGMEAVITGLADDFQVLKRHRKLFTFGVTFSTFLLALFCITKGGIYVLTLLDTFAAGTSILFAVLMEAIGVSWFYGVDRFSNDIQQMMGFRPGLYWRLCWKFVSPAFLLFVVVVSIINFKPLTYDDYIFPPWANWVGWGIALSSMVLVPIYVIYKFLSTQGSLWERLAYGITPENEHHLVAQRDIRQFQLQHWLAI

For `Cc1nnc(N(C)C)c2nn(-c3cccc(O[C@H](c4ccccc4)[C@@H]4CNCCO4)c3)c(C)c12` (racemic) [Example 12, N,N,3,4-tetramethyl-2-(3-((R)-((S)-morpholin-2-yl)(phenyl)methoxy)phenyl)-2H-pyrazolo[3,4-d]pyridazin-7-amine], the inhibitory constant (Ki) was in the range of 100 to 500 nM in assay [1] and 500 to 5000 nM in assay [2].

Regarding `Cc1nnc(N(C)C)c2nn(-c3cccc(O[C@@H](c4ccccc4)[C@@H]4CNCCO4)c3)c(C)c12` (racemic) [Example 13, N,N,3,4-tetramethyl-2-(3-((S)-((S)-morpholin-2-yl)(phenyl)methoxy)phenyl)-2H-pyrazolo[3,4-d]pyridazin-7-amine], the inhibition constant Ki was 500 to 1000 nM in assay [1] and 500 to 5000 nM in assay [2].

As for `CNCCC(Oc1cccc(-n2nc3c(N(C)C)nnc(C)c3c2C)c1)c1ccccc1` (stereo not shown) [Example 1, N,N,3,4-Tetramethyl-2-(3-(3-(methylamino)-1-phenylpropoxy)phenyl)-2H-pyrazolo[3,4-d]pyridazin-7-amine], the results for the Ki in assay [1] and in assay [2] were less than 100 nM and 500 to 5000 nM, respectively.

Consider `Cc1nnc(N(C)C)c2nn(-c3cccc(OC(CCN(C)C)c4ccccc4)c3)c(C)c12` (stereo not shown) [Example 2, 2-(3-(3-(dimethylamino)-1-phenylpropoxy)phenyl)-N,N,3,4-tetramethyl-2H-pyrazolo[3,4-d]pyridazin-7-amine], for which the Ki in assay [1] lay in the range of 100 to 500 nM; in assay [2] it was 500 to 5000 nM.

With `CCNCCC(Oc1cccc(-n2nc3c(N(C)C)nnc(C)c3c2C)c1)c1ccccc1` (stereo not shown) [Example 3, 2-(3-(3-(ethylamino)-1-phenylpropoxy)phenyl)-N,N,3,4-tetramethyl-2H-pyrazolo[3,4-d]pyridazin-7-amine], the inhibition constant (Ki) was in the range of 100 to 500 nM in assay [1] and 500 to 5000 nM in assay [2].

For the molecule `Cc1nnc(N(C)C)c2nn(-c3cccc(OC(CCN)c4ccccc4)c3)c(C)c12` (stereo not shown) [Example 4, 2-(3-(3-amino-1-phenylpropoxy)phenyl)-N,N,3,4-tetramethyl-2H-pyrazolo[3,4-d]pyridazin-7-amine], the Ki was in the range of 100 to 500 nM in assay [1] and 500 to 5000 nM in assay [2].

Turning to `CNCCC(Oc1cccc(-n2nc3c(N(C)C)nnc(C)c3c2C)c1)c1cccc(F)c1` (stereo not shown) [Example 5, 2-(3-(1-(3-fluorophenyl)-3-(methylamino)propoxy)phenyl)-N,N,3,4-tetramethyl-2H-pyrazolo[3,4-d]pyridazin-7-amine], the inhibition constant (Ki) in assay [1] is less than 100 nM; in assay [2] it was 500 to 5000 nM.

`CNCCCC(Oc1cccc(-n2nc3c(N(C)C)nnc(C)c3c2C)c1)c1ccccc1` (stereo not shown) [Example 6, N,N,3,4-tetramethyl-2-(3-(4-(methylamino)-1-phenylbutoxy)phenyl)-2H-pyrazolo[3,4-d]pyridazin-7-amine]: the inhibitory constant (Ki) in assay [1] is 100 to 500 nM; in assay [2] it was 500 to 5000 nM.

Take `CNCCC(Oc1cccc(-n2nc3c(N(C)C)nnc(C)c3c2C)c1)c1ccc(C#N)cc1` (stereo not shown) [Example 7, 4-(1-(3-(7-(dimethylamino)-3,4-dimethyl-2H-pyrazolo[3,4-d]pyridazin-2-yl)phenoxy)-3-(methylamino)propyl)benzonitrile]: the inhibitory constant (Ki) in assay [1] was in the range of 100 to 500 nM; in assay [2] it was 500 to 5000 nM.

As to `CNCCC(Oc1cccc(-n2nc3c(N(C)C)nnc(C)c3c2C)c1)c1ccc(F)cc1` (stereo not shown) [Example 8, 2-(3-(1-(4-fluorophenyl)-3-(methylamino)propoxy)phenyl)-N,N,3,4-tetramethyl-2H-pyrazolo[3,4-d]pyridazin-7-amine], the figures for the Ki in assay [1] and in assay [2] were less than 100 nM and 500 to 5000 nM, respectively.

For `CNCCC(Oc1cccc(-n2nc3c(N(C)C)nnc(C)c3c2C)c1)c1ccccn1` (stereo not shown) [Example 9, N,N,3,4-tetramethyl-2-(3-(3-(methylamino)-1-(pyridin-2-yl)propoxy)phenyl)-2H-pyrazolo[3,4-d]pyridazin-7-amine], the figures for the Ki in assay [1] and in assay [2] were 100 to 500 nM and 500 to 5000 nM, respectively.

With `CNCCC(Oc1cccc(-n2nc3c(N(C)C)nnc(C)c3c2C)c1)c1ccncc1` (stereo not shown) [Example 10, N,N,3,4-tetramethyl-2-(3-(3-(methylamino)-1-(pyridin-4-yl)propoxy)phenyl)-2H-pyrazolo[3,4-d]pyridazin-7-amine], the results for the inhibition constant Ki in assay [1] and in assay [2] were less than 100 nM and 500 to 5000 nM, respectively.

`CNCCC(Oc1cccc(-n2nc3c(N(C)C)nnc(C)c3c2C)c1)c1cccc(C#N)c1` (stereo not shown) [Example 11, 3-(1-(3-(7-(dimethylamino)-3,4-dimethyl-2H-pyrazolo[3,4-d]pyridazin-2-yl)phenoxy)-3-(methylamino)propyl)benzonitrile]: the Ki in assay [1] is less than 100 nM; in assay [2] it was 500 to 5000 nM.

In the case of `Cc1nnc(N(C)C)c2nn(-c3cccc(OCCC(N)c4ccccc4)c3)c(C)c12` (stereo not shown) [Example 14, 2-(3-(3-amino-3-phenylpropoxy)phenyl)-N,N,3,4-tetramethyl-2H-pyrazolo[3,4-d]pyridazin-7-amine], the figures for the Ki in assay [1] and in assay [2] were 100 to 500 nM and 500 to 5000 nM, respectively.

As to `CNC(COc1cccc(-n2nc3c(N(C)C)nnc(C)c3c2C)c1)c1ccccc1` (stereo not shown) [Example 15, N,N,3,4-tetramethyl-2-(3-(2-(methylamino)-2-phenylethoxy)phenyl)-2H-pyrazolo[3,4-d]pyridazin-7-amine], the Ki in assay [1] is less than 100 nM; in assay [2] it was 500 to 5000 nM.

`Cc1nnc(N(C)C)c2nn(-c3cccc(OC4CNCc5ccccc54)c3)c(C)c12` (stereo not shown) [Example 16, N,N,3,4-tetramethyl-2-(3-((1,2,3,4-tetrahydroisoquinolin-4-yl)oxy)phenyl)-2H-pyrazolo[3,4-d]pyridazin-7-amine]: the Ki in assay [1] was no less than 1000 nM; in assay [2] it was 500 to 5000 nM.

For `CCNCCC(Oc1cccc(-n2nc3c(N(C)C)nnc(C)c3c2C)c1)c1cccc(F)c1` (stereo not shown) [Example 17, 2-(3-(3-(ethylamino)-1-(3-fluorophenyl)propoxy)phenyl)-N,N,3,4-tetramethyl-2H-pyrazolo[3,4-d]pyridazin-7-amine], the inhibition constant Ki in assay [1] was no less than 1000 nM; in assay [2] it was 500 to 5000 nM.

As for `CNCCC(Oc1cccc(-n2nc3c(N(C)C)nnc(C)c3c2C)c1)c1cc(F)cc(F)c1` (stereo not shown) [Example 18, 2-(3-(1-(3,5-difluorophenyl)-3-(methylamino)propoxy)phenyl)-N,N,3,4-tetramethyl-2H-pyrazolo[3,4-d]pyridazin-7-amine], the Ki was 100 to 500 nM in assay [1] and 500 to 5000 nM in assay [2].

Turning to `Cc1nnc(N(C)C)c2nn(-c3cccc(OC(CCN)c4ccccc4F)c3)c(C)c12` (stereo not shown) [Example 19, 2-(3-(3-amino-1-(2-fluorophenyl)propoxy)phenyl)-N,N,3,4-tetramethyl-2H-pyrazolo[3,4-d]pyridazin-7-amine], the Ki in assay [1] fell in the range of 100 to 500 nM; in assay [2], 500 to 5000 nM.

On to `Cc1nnc(N(C)C)c2nn(-c3cccc(OC(CCN)c4ccc(F)cc4)c3)c(C)c12` (stereo not shown) [Example 20, 2-(3-(3-amino-1-(4-fluorophenyl)propoxy)phenyl)-N,N,3,4-tetramethyl-2H-pyrazolo[3,4-d]pyridazin-7-amine], for which the Ki in assay [1] lay within 100 to 500 nM; in assay [2], 500 to 5000 nM.

In the case of `Cc1nnc(N(C)C)c2nn(-c3cccc(OC(CCN)c4cccc(F)c4)c3)c(C)c12` (stereo not shown) [Example 21, 2-(3-(3-amino-1-(3-fluorophenyl)propoxy)phenyl)-N,N,3,4-tetramethyl-2H-pyrazolo[3,4-d]pyridazin-7-amine], the results for the Ki in assay [1] and in assay [2] were 100 to 500 nM and 500 to 5000 nM, respectively.

Turning to `CNCCC(Oc1cccc(-n2nc3c(NC)nnc(C)c3c2C)c1)c1ccccc1F` (stereo not shown) [Example 22, 2-(3-(1-(2-fluorophenyl)-3-(methylamino)propoxy)phenyl)-N,3,4-trimethyl-2H-pyrazolo[3,4-d]pyridazin-7-amine], the Ki was less than 100 nM in assay [1] and 500 to 5000 nM in assay [2].

Regarding `CNc1nnc(C)c2c(C)n(-c3cccc(OC(CCN)c4ccccc4F)c3)nc12` (stereo not shown) [Example 23, 2-(3-(3-amino-1-(2-fluorophenyl)propoxy)phenyl)-N,3,4-trimethyl-2H-pyrazolo[3,4-d]pyridazin-7-amine], the figures for the inhibitory constant (Ki) in assay [1] and in assay [2] were 100 to 500 nM and 500 to 5000 nM, respectively.

On to `CNc1nnc(C)c2c(C)n(-c3cccc(OC(CCN)c4ccccc4)c3)nc12` (stereo not shown) [Example 24, 2-(3-(3-amino-1-phenylpropoxy)phenyl)-N,3,4-trimethyl-2H-pyrazolo[3,4-d]pyridazin-7-amine], for which the Ki was 500 to 1000 nM in assay [1] and 500 to 5000 nM in assay [2].

As for `CNCCC(Oc1cccc(-n2nc3c(NC)nnc(C)c3c2C)c1)c1ccccc1` (stereo not shown) [Example 25, N,3,4-trimethyl-2-(3-(3-(methylamino)-1-phenylpropoxy)phenyl)-2H-pyrazolo[3,4-d]pyridazin-7-amine], the inhibition constant Ki in assay [1] lay within 100 to 500 nM; in assay [2] it was 500 to 5000 nM.

As to `CNCCC(Oc1cccc(-n2nc3c(N)nnc(C)c3c2C)c1)c1ccccc1F` (stereo not shown) [Example 26, 2-(3-(1-(2-fluorophenyl)-3-(methylamino)propoxy)phenyl)-3,4-dimethyl-2H-pyrazolo[3,4-d]pyridazin-7-amine], the Ki was 100 to 500 nM in assay [1] and 500 to 5000 nM in assay [2].
